In data set [1] the test system is rats. Put plainly: positive emotional learning (PEL) test, 50-kHz ultrasonic vocalizations. It counts as in vivo. Particulars: rat, PO, one hour after administration. As for the experimental part: Experiments were conducted as described in Burgdorf et al., “The effect of selective breeding for differential rates of 50-kHz ultrasonic vocalizations on emotional behavior in rats,” Devel. Psychobiol., 51:34-46 (2009). Rat 50-kHz ultrasonic vocalization (hedonic USVs) is a validated model for the study of positive affective state and is best elicited by rough-and-tumble play.
The PEL assay measures the acquisition of positive (hedonic) 50-kHz ultrasonic vocalizations (USVs) to a social stimulus, heterospecific rough and tumble play stimulation. Heterospecific rough-and-tumble play stimulation was administered by the experimenter's right hand. One hour after administration of test compound or vehicle negative control (0.5% sodium carboxymethyl cellulose in 0.9% sterile saline vehicle), animals received 3 min of heterospecific rough-and-tumble play that consisted of alternating 15 sec blocks of heterospecific play and 15 sec of no-stimulation. High frequency ultrasonic vocalizations (USVs) were recorded and analyzed by sonogram with Avasoft SASlab Pro (Germany) as previously described by Burgdorf et al., “Positive emotional learning is regulated in the medial prefrontal cortex by GluN2B-containing NMDA receptors,” Neuroscience, 192:515-523 (2011). Frequency modulated 50-kHz USVs that occurred during each of the no-stimulation periods were quantified to measure PEL. Animals were not habituated to play stimulation before testing. Positive emotional learning was measured during the conditioned stimulus (CS) trials preceding the tickle unconditioned stimulus (UCS) trials. Animals received 15 second trials consisting of 6 CS and 6 UCS trials each (3 min total).
The table below summarizes the findings. As each experiment includes its own vehicle group, an example (typical) vehicle score is shown. Max effect (mean number of 50 kHz USVs per 15 seconds) is reported as ^: <6.0; *: 6.0-7.6; **: 7.7-10; ***:10.1-20

Data set [2] addresses T1, NMDAR2B (Homo sapiens, UniProt Q13224).
T1 construct: expressed in transfected cells; host or cells: HEK cells (membrane extract)
The experiment in a line: [3H]MK-801 binding in NMDAR2B expressing HEK cell membranes. The following applies: 50 μM glutamate; for Emax: read-out: A: % maximal [3H]MK-801 binding relative to 1 mM glycine; for EC50: read-out: B: log EC50 (converted). It counts as biochemical. Also on record: key to B: log EC50: 0=−; ≥1×10^−9 M (e.g., −8)=+; <1×10^−9 M (e.g., −10)=++. As for the experimental part: (§1) Assays were conducted as described by Moskal et al., “GLYX-13: a monoclonal antibody-derived peptide that acts as an N-methyl-D-aspartate receptor modulator,” Neuropharmacology, 49, 1077-87, 2005. These studies were designed to determine if the test compounds act to facilitate NMDAR activation in NMDAR2A, NMDAR2B, NMDAR2C or NMDAR2D expressing HEK cell membranes as measured by increases in [^3H]MK-801 binding.
(§2) In the assay, 300 μg of NMDAR expressing HEK cell membrane extract protein was preincubated for 15 minutes at 25° C. in the presence of saturating concentrations of glutamate (50 μM) and varying concentrations of test compound (1×10^−15M−1×10^−7M), or 1 mM glycine. Following the addition of 0.3 μCi of [^3H]MK-801 (22.5 Ci/mmol), reactions were again incubated for 15 minutes at 25° C. (nonequilibrium conditions). Bound and free [^3H]MK-801 were separated via rapid filtration using a Brandel apparatus.
(§3) In analyzing the data, the DPM (disintegrations per minute) of [^3H]MK-801 remaining on the filter were measured for each concentration of test compound or for 1 mM glycine. The DPM values for each concentration of a ligand (N=2) were averaged. The baseline value was determined from the best fit curve of the DPM values modeled using the GraphPad program and the log(agonist) vs. response (three parameters) algorithm was then subtracted from all points in the dataset. The % maximal [^3H]MK-801 binding was then calculated relative to that of 1 mM glycine: all baseline subtracted DPM values were divided by the average value for 1 mM glycine. The EC50 and % maximal activity were then obtained from the best fit curve of the % maximal [^3H]MK-801 binding data modelled using the GraphPad program and the log(agonist) vs. response (three parameters) algorithm.
(§4) The tables below summarize the results for the wild type […] NMDAR2A, NMDAR2B, NMDAR2C, and NMDAR2D, and whether the compound is not an agonist (−), is an agonist (+), or is a strong agonist (++), where column A is based on the % maximal [^3H]MK-801 binding relative to 1 mM glycine (−=0; <100%=+; and >100%=++); and column B is based on log EC50 values (0=−; ≥1×10^−9 M (e.g., −8)=+; and <1×10^−9 M (e.g., −10)=++).

Data set [3] deals with T2, NMDAR2A (Homo sapiens, UniProt Q12879).
T2 construct: expressed in transfected cells; host or cells: HEK cells (membrane extract)
T2 sequence (Q12879 23-1464, species assumed, other chains not shown): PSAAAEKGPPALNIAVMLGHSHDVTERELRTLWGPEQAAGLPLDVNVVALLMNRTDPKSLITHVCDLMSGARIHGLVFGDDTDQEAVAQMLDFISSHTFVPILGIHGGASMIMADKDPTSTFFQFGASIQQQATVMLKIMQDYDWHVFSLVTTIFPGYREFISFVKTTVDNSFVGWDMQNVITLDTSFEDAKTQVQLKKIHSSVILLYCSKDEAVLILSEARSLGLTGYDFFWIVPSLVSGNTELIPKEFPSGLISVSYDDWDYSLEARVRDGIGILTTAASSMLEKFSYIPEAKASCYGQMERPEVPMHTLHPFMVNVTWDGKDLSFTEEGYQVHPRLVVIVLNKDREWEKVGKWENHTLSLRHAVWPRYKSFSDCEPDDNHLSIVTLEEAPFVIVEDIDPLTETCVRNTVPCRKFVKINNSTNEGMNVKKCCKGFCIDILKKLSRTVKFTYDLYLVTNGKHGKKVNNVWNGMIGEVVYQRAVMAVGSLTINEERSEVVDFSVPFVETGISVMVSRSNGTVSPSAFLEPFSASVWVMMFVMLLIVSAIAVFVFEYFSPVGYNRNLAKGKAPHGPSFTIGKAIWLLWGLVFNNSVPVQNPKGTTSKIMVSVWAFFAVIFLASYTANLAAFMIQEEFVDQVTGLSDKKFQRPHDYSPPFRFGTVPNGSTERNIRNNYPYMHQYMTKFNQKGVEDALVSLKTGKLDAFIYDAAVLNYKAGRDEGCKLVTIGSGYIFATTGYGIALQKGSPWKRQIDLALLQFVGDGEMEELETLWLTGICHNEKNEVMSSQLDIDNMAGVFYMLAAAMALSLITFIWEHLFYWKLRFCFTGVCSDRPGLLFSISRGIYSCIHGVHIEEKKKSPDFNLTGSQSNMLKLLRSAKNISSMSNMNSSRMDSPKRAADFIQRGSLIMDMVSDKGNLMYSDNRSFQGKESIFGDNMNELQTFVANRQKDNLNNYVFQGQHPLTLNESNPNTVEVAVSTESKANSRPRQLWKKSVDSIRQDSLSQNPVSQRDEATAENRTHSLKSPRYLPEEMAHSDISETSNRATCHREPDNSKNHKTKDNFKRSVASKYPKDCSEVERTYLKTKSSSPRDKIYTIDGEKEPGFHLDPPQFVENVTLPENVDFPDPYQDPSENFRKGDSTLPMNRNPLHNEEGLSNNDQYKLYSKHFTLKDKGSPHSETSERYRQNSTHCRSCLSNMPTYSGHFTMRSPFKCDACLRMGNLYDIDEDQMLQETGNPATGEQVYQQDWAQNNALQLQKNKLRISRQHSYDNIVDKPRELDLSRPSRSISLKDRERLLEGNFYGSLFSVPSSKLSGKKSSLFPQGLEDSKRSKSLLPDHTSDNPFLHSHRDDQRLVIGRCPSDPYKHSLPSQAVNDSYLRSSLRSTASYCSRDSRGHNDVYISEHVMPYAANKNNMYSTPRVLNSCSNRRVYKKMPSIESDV
The experiment in a line: [3H]MK-801 binding in NMDAR2A expressing HEK cell membranes. It counts as biochemical. The following applies: 50 μM glutamate; for Emax: read-out: A: % maximal [3H]MK-801 binding relative to 1 mM glycine; for EC50: read-out: B: log EC50 (converted). The procedure: as §1, §2, §3, §4

Data set [4] is described as follows: oral pharmacokinetics (plasma, brain, CSF). The following applies: Sprague Dawley rats, per os 10 mg/kg; for Tmax: normal saline (first four compounds: 5% NMP, 5% Solutol HS, 90% normal saline). It counts as in vivo.
Procedure: Plasma, brain, and CSF samples were analyzed at various time points over a 24 hour period.
The nature of data set [5]: IV pharmacokinetics. The class given is in vivo. The following applies: Sprague Dawley rats; for C0: normal saline (first four compounds: 5% NMP, 5% Solutol HS, 90% normal saline). The procedure:
Sprague Dawley rats were dosed intravenously using a normal saline formulation containing 2 mg/kg of the compounds identified in the below table (except for the first four compounds that were delivered in 5% NMP, 5% Solutol® HS and 90% normal saline formulation). The table below summarizes the results of the IV pharmacokinetics.

Data set [6] concerns the target T3, NMDAR2D (Homo sapiens, UniProt O15399).
T3 construct: expressed in transfected cells; host or cells: HEK cells (membrane extract)
Put plainly: [3H]MK-801 binding in NMDAR2D expressing HEK cell membranes. It counts as biochemical. Also on record: key to B: log EC50: 0=−; ≥1×10^−9 M (e.g., −8)=+; <1×10^−9 M (e.g., −10)=++. The following applies: for A: % maximal [3H]MK-801 binding relative to 1 mM glycine: c3, taken as NMDAR2D. As for the experimental part:
as §1, §2, §3, §4

The subject of data set [7] is Sprague Dawley rats. Put plainly: Porsolt forced swim test. The class given is in vivo. Particulars: 0.1 mg/kg; for % reduction in float time: relative to vehicle group. As for the experimental part:
A non-clinical in vivo pharmacology study (Porsolt assay) was performed to measure antidepressant-like effects. A negative control (0.5% sodium carboxymethyl cellulose in 0.9% sterile saline vehicle) and a positive control (fluoxetine) are shown for comparison against test compound. The study allowed for the evaluation of the effects of each compound on the Porsolt forced swim test as assessed by the rats' response (reduced floating time) during a 5-minute swimming test.
Male 2-3 month old Sprague Dawley rats were used (Harlan, Indianapolis, Ind.). Rats were housed in Lucite cages with aspen wood chip bedding, maintained on a 12:12 light:dark cycle (lights on at 5 AM), and given ad libitum access to Purina lab chow (USA) and tap water throughout the study.
The Porsolt forced swim test adapted for use in rats was performed as described by Burgdorf et al., (The long-lasting antidepressant effects of rapastinel (GLYX-13) are associated with a metaplasticity process in the medial prefrontal cortex and hippocampus. Neuroscience 308:202-211, 2015). Animals were placed in a 46 cm tall×20 cm in diameter clear glass tube filled to 30 cm with tap water (23±1° C.) for 15 min on the first day (habituation) and 5 min on the subsequent test day. Positive control fluoxetine was dosed 3 times (24 h, 5 h and 1 h) prior to testing. Animals were tested 1 h or 24 h post-dosing with the test compounds or vehicle. Animals received a 15 min habituation session 1 day before the 5 min test. A subset of compounds tested at 1 h post-dosing were retested at 1 wk post-dosing in the same sets of animals. Water was changed after every other animal. Animals were videotaped, and floating time as defined as the minimal amount of effort required to keep the animals head above water was scored offline by a blinded experimenter with high inter-rater reliability (Pearson's r>0.9).
Each compound tested at dose level shown. Significance vs. vehicle group for each experiment is marked. […] A compound marked “No” was not statistically significant from vehicle. Data was averaged for test compound and vehicle groups (N approximately 8 per group) and the percent reduction in floating for group treated with test compound relative to group treated with vehicle is shown.

Where [8] appears, read: Sprague Dawley, rat, plasma, po, 10 mg/kg, read-out: Tmax.
Where [9] appears, read: Sprague Dawley, rat, plasma, po, 10 mg/kg, plasma, read-out: Cmax.
Where [10] appears, read: Sprague Dawley, rat, in vivo, iv, 2 mg/kg.
Where [11] appears, read: Sprague Dawley, rat, plasma, po, 10 mg/kg.

Molecules are shown by their SMILES. Like-named read-outs stand apart in the source and are kept apart here.

T1 sequence (Q13224 27-1484, species assumed, other chains not shown): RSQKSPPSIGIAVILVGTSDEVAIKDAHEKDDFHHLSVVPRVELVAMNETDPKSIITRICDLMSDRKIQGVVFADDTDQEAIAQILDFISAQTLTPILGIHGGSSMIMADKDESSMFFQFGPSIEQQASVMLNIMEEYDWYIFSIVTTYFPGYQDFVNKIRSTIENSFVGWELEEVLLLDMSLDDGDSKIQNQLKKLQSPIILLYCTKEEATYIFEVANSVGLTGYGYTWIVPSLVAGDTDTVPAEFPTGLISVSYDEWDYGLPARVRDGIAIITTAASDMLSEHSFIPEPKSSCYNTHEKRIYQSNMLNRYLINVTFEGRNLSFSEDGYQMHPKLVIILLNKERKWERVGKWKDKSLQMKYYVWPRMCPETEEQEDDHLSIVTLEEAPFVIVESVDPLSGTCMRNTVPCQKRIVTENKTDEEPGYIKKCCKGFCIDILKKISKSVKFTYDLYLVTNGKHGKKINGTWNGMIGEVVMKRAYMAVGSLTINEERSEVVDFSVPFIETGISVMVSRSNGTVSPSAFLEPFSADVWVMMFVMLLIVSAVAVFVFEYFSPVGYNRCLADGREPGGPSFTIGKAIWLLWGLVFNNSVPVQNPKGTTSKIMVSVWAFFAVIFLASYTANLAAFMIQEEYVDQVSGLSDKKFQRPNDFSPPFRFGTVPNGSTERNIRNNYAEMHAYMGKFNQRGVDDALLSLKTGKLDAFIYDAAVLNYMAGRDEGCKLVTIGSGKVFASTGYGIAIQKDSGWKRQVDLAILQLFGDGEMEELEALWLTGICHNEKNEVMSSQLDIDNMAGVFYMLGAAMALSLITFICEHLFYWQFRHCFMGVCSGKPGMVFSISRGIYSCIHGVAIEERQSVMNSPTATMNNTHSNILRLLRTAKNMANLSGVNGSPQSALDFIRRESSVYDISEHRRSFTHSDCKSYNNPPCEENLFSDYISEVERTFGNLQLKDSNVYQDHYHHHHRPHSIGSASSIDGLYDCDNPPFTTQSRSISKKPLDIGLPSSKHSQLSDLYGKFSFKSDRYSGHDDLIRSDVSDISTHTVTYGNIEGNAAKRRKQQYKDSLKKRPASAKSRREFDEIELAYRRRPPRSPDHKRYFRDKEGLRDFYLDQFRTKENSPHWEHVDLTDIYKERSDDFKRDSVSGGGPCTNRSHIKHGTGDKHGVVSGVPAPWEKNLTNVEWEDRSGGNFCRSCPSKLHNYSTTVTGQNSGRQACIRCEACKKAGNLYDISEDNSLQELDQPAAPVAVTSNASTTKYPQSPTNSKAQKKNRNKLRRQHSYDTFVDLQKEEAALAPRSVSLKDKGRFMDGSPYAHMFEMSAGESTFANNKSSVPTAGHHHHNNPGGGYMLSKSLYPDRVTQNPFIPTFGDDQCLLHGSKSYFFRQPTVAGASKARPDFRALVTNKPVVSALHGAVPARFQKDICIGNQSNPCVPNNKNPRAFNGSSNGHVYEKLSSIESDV
T3 sequence (O15399 28-1336, species assumed, other chains not shown): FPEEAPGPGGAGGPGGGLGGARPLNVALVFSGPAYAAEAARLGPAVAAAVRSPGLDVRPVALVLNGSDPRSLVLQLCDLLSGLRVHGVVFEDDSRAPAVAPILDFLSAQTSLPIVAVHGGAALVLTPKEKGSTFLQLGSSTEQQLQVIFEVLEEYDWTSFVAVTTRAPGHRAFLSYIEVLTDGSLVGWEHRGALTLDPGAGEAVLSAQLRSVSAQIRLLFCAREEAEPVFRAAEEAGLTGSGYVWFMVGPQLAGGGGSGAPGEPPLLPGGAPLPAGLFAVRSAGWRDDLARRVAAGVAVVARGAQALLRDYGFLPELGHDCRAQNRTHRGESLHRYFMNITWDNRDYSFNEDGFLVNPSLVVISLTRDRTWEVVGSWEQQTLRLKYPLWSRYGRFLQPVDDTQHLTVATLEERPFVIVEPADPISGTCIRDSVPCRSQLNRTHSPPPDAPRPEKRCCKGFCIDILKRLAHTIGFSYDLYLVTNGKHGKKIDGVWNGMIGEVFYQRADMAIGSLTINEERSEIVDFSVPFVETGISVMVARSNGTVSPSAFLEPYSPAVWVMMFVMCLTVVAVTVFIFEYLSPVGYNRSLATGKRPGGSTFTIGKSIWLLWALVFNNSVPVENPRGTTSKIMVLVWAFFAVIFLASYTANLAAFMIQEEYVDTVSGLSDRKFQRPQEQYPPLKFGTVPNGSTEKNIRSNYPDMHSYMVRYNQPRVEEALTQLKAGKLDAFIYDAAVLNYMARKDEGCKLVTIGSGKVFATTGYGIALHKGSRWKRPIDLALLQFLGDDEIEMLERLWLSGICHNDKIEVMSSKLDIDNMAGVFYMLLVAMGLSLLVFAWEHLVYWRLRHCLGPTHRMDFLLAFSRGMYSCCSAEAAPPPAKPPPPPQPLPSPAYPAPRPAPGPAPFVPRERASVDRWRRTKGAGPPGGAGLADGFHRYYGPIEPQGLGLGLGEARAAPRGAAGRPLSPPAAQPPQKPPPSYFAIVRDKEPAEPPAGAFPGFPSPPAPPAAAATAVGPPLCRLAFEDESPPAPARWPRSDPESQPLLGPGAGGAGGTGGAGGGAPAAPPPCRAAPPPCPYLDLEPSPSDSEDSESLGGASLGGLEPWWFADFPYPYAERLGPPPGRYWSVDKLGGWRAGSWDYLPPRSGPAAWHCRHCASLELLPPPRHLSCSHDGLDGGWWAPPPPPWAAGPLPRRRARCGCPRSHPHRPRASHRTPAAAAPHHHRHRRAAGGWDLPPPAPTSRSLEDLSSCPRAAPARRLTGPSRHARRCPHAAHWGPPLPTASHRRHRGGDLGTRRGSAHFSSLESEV

For `CC(C)(C)OC(=O)N1CCCC12CCNC2=O` (single isomer, unassigned) [RT-1, tert-butyl 6-oxo-1,7-diazaspiro[4.4]nonane-1-carboxylate], the “Max Effect (mean number of 50 kHz USVs per 15 seconds)” value in data set [1] (dose 0.1 mg/kg) is recorded as “** (**: 7.7-10)”. In data set [2], the Emax was less than 100% and the half-maximal effective concentration (EC50) is less than 1 nM. Besides, in data set [3], the Emax is less than 100% and the EC50 is less than 1 nM.
As for `O=C1NCCC12CCCN2` (single isomer, unassigned) [RW-1, 1,7-diazaspiro[4.4]nonan-6-one], the “Max Effect (mean number of 50 kHz USVs per 15 seconds)” value in data set [1] (dose 0.1 mg/kg) was “** (**: 7.7-10)”. Besides, in data set [2], the Emax is less than 100% and the EC50 was less than 1 nM. In addition, in data set [3], the Emax is less than 100% and the 50% effective concentration (EC50) was not below 1 nM. The “CSF Cmax” value in data set [4] is recorded as 853 ng/mL. The time to peak (Tmax) in data set [4] (setting [8]) is 1 h. The Cmax in data set [4] (setting [9]) stood at 4070 ng/mL.
For `O=C1NCCC12CCCNC2` (stereo not drawn) [RB-1, 2,7-diazaspiro[4.5]decan-1-one], the “Max Effect (mean number of 50 kHz USVs per 15 seconds)” value in data set [1] (dose .001-1 mg/kg) is “*** (***:10.1-20)”. In data set [5] (intravenous 2 mg/kg), the T1/2 stood at 3.35 h. Moreover, in data set [5] (setting [10]), the AUC(0-t) is 1260 ng·h/mL and the clearance was 25.8 mL/min/kg. The C0 in data set [5] (Sprague Dawley, rat, in vivo, iv, 2 mg/kg, read-out: C0) was 2070 ng/mL. Further, the Vd in data set [5] (Sprague Dawley, rat, in vivo, iv, 2 mg/kg, read-out: Vss) was 2.79 L/kg. Moreover, in data set [2], the “B: log EC50” value is on record as “−” and the Emax was more than 100%. Besides, the “A: % maximal [3H]MK-801 binding relative to 1 mM glycine” value in data set [6] (second part of table (r25-r35)) was “+ (<100%=+)”. In data set [3], the Emax was less than 100% and the concentration for a half-maximal effect (EC50) is less than 1 nM. For the same molecule, in data set [4], the “CSF Cmax” value is given as 27.4 ng/mL and the “Brain Cmax” value is 40.2 ng/mL. In data set [4] (setting [11]), this molecule registered an area under the curve AUC(0-t) of 3290 ng·h/mL and a bioavailability of 52%. For the same molecule, the Tmax in data set [4] (setting [8]) turned out to be 1.17 h. In data set [4] (setting [9]), the Cmax was determined as 825 ng/mL.
For `O=C1NCCC12CCCNC2` (stereo not drawn) [RC-1, 2,7-diazaspiro[4.5]decan-1-one], the “Max Effect (mean number of 50 kHz USVs per 15 seconds)” value in data set [1] (dose .001-1 mg/kg) was “*** (***:10.1-20)”. Moreover, in data set [5] (intravenous 2 mg/kg), the AUClast came to 1511.4 ng·h/mL, the Cl worked out at 21.81 mL/min/kg, the T1/2 was determined as 1.36 h and the Vss came out at 1.84 L/kg. This molecule also gave a C0 in data set [5] (intravenous 2 mg/kg) of 2013.4 ng/mL. Besides, in data set [2], the “A: % maximal [3H]MK-801 binding relative to 1 mM glycine” value is listed as “++ (>100%=++)” and the concentration giving a half-maximal response (EC50) was less than 1 nM. Further, in data set [6] (second part of table, c4, taken as NMDAR2D), the “B: log EC50” value was “−”. For the same molecule, in data set [3], the “A: % maximal [3H]MK-801 binding relative to 1 mM glycine” value was “+ (<100%=+)” and the EC50 is less than 1 nM. Further, in data set [4], the “% F” value was found to be 49%, the AUClast was determined as 3668.7 ng·h/mL, the “CSF Cmax” value came to 20.8 ng/mL and the “Brain Cmax” value is given as 27.6 ng/mL. Besides, the Tmax in data set [4] was 1.67 h. Besides, in data set [4] (plasma), the peak concentration (Cmax) amounted to 990.2 ng/mL.
Regarding `O=C1NCCC12CCCCN2` (stereo not drawn) [RG-602], the Significance vs. vehicle entry is listed as “Yes (statistically significant (p<=0.05) from vehicle at dose level shown)” in data set [7] (1 wk post-dose) and “Yes (statistically significant (p<=0.05) from vehicle at dose level shown)” in data set [7] (1 h post-dose, floating time in 5 min test). The “% reduction in float time” value in data set [7] (1 wk post-dose) is 55.5%; in data set [7] (1 h post-dose) it was 71.1%. The “A: % maximal [3H]MK-801 binding relative to 1 mM glycine” value in data set [2], in data set [6] (second part of table (r25-r35)) and in data set [3] was “+ (<100%=+)” in each case. Besides, the EC50 in data set [2] was less than 1 nM; in data set [6] (second part of table (r25-r35), c4, taken as NMDAR2D, read-out: B: log EC50 (converted)) it was less than 1 nM; in data set [3], less than 1 nM.

For orientation: EC50 means the concentration giving half of the maximal effect. One may read the Tmax as the time from dosing to the highest level. One may read the Cmax as the peak of the concentration-time curve. The term AUC(0-t) denotes exposure summed from dosing to a finite time, without extrapolation to infinity. For orientation: clearance means a measure of how efficiently the substance is removed, as volume per time. The term bioavailability denotes the share of a dose that reaches the circulation, judged against a reference dose that is usually intravenous. The term Vss denotes the apparent volume that relates the amount in the body to the concentration in plasma or blood.

Values taken from patent US11530223B2, “Spiro-lactam NMDA receptor modulators and uses thereof” (Aptinyx Inc., priority 2016, dated 2022).
